This note sets out measurements from patent US20020160066A1, “Composition and methods containing an antimicrobial essential oil extracted from Coleus forskohlii” (priority 2001, published 2002).

Assay [1] has as its system Staphylococcus aureus. Nature of the assay: Second study, disk clearance zone, Staphylococcus aureus. It counts as cell-based. To be noted: 30 μg/disk. The text has this:
Determination of the antimicrobial activity of the composition. The sensitivity of Propionbacterium acnes a microorganism associated with acne and other skin infections (Nishijima, et al. (2000)), Staphylococcus aureus a bacterial strain found in infected wounds and skin eruptions including acne (Nishijima, et al. 1994)), Staphylococcus epidermidis a bacterial strain occurring in a variety of opportunistic bacterial skin infections and in acne (Nishijima, S. et al. (2000)) and Streptococcus mutans, a bacterial strain associated with the progression of dental caries (Sanchez-Perez, L. et al. (2001)), Candida albican, and Streptococcus epidermidis; to Coleus forskohlii oil using disk diffusion methodology was determined. One strain each of Propionbacterium acnes (ATCC 11827), Staphylococcus aureus (ATCC 29213), Streptococcus mutans (ATCC 25175), and Staphylococcus epidermidis (ATCC 14990) Candida albicans (ATCC 11006) and Streptococcus epidermidis (ATCC 14990) were obtained from ATCC. Propionbacterium acnes culture were grown in Reinforced Clostridia media under anaerobic conditions at 37° C. for 24 hours. Staphylococcus aureus, Streptococcus mutans and Staphylococcus epidermidis cultures were cultured in Trypticase Soy Broth under aerobic conditions at 37° C. for 24 hours. […] Inhibition zones were measured to the closest one tenth of one millimeter using a caliper. […]

The subject of assay [2] is E. coli. Nature of the assay: Second study, disk clearance zone, E. coli. It is filed as cell-based. To be noted: Escherichia coli; 30 μg/disk.

In general, zone of inhibition refers to the size of the clear area around the sample on an inoculated plate. A higher zone of inhibition goes with a stronger effect on the plate. Take `O=C(N[C@H](CO)[C@H](O)c1ccc([N+](=O)[O-])cc1)C(Cl)Cl` [Chloramphenicol]: the zone of inhibition at 30 µg/disc in assay [1] worked out at 20 mm; in assay [2] it was 34 mm.
